Assay results as given in US7943628B2, “Pyrimidine derivatives” (Pfizer Limited, priority 2005, dated 2011).

These compounds were tested against T1, histamine H4 receptor (Homo sapiens, UniProt Q9H3N8) (assay: H4 binding, method 1 ([3H]-histamine filtration binding on CHO cell membranes)). Conditions: 1.5 h.
T1 construct: expressed in transfected cells; host or cells: CHO cells
Method in brief: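 Membranes from CHO cells expressing human H4 receptor (20-35 μg/well) incubated 90 min at room temperature with 3 nM [3H]-histamine in 50 mM Tris-HCl pH 7.4, ± competitor. Bound label separated by filtration on PEI-soaked GF/B filters and counted by scintillation; non-specific binding with 10 μM JNJ7777120.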

T1 sequence (Q9H3N8 whole entry): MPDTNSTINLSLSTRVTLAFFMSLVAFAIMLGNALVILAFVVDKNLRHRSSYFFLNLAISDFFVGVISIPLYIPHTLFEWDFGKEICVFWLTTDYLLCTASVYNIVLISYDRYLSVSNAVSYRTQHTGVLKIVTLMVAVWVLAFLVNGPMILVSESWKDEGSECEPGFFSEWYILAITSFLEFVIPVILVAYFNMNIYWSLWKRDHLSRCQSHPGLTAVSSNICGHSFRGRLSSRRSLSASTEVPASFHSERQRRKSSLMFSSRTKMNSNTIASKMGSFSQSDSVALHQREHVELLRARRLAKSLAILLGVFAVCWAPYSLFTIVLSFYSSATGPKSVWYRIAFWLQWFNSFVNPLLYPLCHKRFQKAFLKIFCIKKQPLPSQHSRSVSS

**Q.** CCCNc1cc(N2CCN[C@H](C)C2)ncn1 [Example 313, 6-[(3R)-3-Methylpiperazin-1-yl]-N-propylpyrimidin-4-amine] was tested. Which inhibition at 20 µM did it give?
**A.** 70%

**Q.** How did the inhibition at 20 µM turn out when Nc1nc(NCC2CC2)cc(N2CC(N3CCOCC3)C2)n1 [Example 322, N^4-(Cyclopropylmethyl)-6-(3-morpholin-4-ylazetidin-1-yl)pyrimidine-2,4-diamine] was run?
**A.** 57%

**Q.** How did the inhibition at 10 µM turn out when CCN(CC)C1CCN(c2cc(NCC(C)(C)C)ncn2)C1 (stereo not drawn) [Example 302, 6-[3-(Diethylamino)pyrrolidin-1-yl]-N-(2,2-dimethylpropyl)pyrimidin-4-amine] was run?
**A.** 20%

**Q.** Nc1nc(NCc2cc(F)ccc2F)cc(N2CC[C@@H](N)C2)n1 [Example 311, 6-[(3R)-3-Aminopyrrolidin-1-yl]-N^4-(2,5-difluorobenzyl)pyrimidine-2,4-diamine] was tested. Which inhibition at 20 µM did it give?
**A.** 80%

Same assay, conditions: H4 binding, method 1; Ki calculated from IC50 (Cheng-Prussoff)

**Q.** Which Ki does the source give for CC(C)CNc1cc(N2C[C@H]3CNC[C@H]3C2)nc(N)n1 [Example 217, 6-[(3aR*,6aS*)-Hexahydropyrrolo[3,4-c]pyrrol-2(1H)-yl]-N^4-isobutylpyrimidine-2,4-diamine] here?
**A.** 80.6 nM

**Q.** How did the Ki turn out when CN(C)CCNc1cc(NCC(C)(C)C)nc(N)n1 [Example 144, N^4-[2-(Dimethylamino)ethyl]-N^6-(2,2-dimethylpropyl)pyrimidine-2,4,6-triamine] was run?
**A.** 16.8 nM

**Q.** For CCNc1cc(N2CC[C@@H]3NCC[C@@H]3C2)nc(N)n1 (racemic) [Example 193, N^4-Ethyl-6-[(3aR*,7aS*)-octahydro-5H-pyrrolo[3,2-c]pyridin-5-yl]pyrimidine-2,4-diamine], which Ki is on record?
**A.** 31 nM

**Q.** Which Ki does the source give for CNC1CN(c2cc(NCc3cc(F)ccc3F)nc(N)n2)C1 [Example 130, N^4-(2,5-Difluorobenzyl)-6-[3-(methylamino)azetidin-1-yl]pyrimidine-2,4-diamine] here?
**A.** 9.69 nM

**Q.** Nc1nc(NC2CC2)cc(N2CCC(N)CC2)n1 [Example 269, 6-(4-Aminopiperidin-1-yl)-N^4-cyclopropylpyrimidine-2,4-diamine] was tested. Which Ki did it give?
**A.** 839 nM

**Q.** Which Ki does the source give for CCCNc1cc(N2CC(NC)C2)nc(N)n1 [Example 73, 6-[3-(Methylamino)azetidin-1-yl]-N^4-propylpyrimidine-2,4-diamine] here?
**A.** 0.88 nM

**Q.** With CN1CC[C@@H](Nc2cc(NCCC(C)(C)C)ncn2)C1 [Example 8, N-(3,3-Dimethylbutyl)-N′-[(3R)-1-methylpyrrolidin-3-yl]pyrimidine-4,6-diamine] as the compound, how does the Ki read?
**A.** 593 nM

**Q.** How did the Ki turn out when CN[C@@H]1CCN(c2cc(NC3CCC3)nc(N)n2)C1 [Example 199, N^4-Cyclobutyl-6-[(3R)-3-(methylamino)pyrrolidin-1-yl]pyrimidine-2,4-diamine] was run?
**A.** 33.9 nM

**Q.** With CN1CCCN(c2cc(NCC(C)(C)C)ncn2)CC1 [Example 239, N-(2,2-Dimethylpropyl)-6-(4-methyl-1,4-diazepan-1-yl)pyrimidin-4-amine] as the compound, how does the Ki read?
**A.** 235 nM

**Q.** CN[C@@H]1CCN(c2cc(NCC(C)(C)C)ncn2)C1 [Example 183, N-(2,2-Dimethylpropyl)-6-[(3R)-3-(methylamino)pyrrolidin-1-yl]pyrimidin-4-amine] was tested. Which Ki did it give?
**A.** 20 nM

**Q.** For CNC1CN(c2cc(N[C@H](C)C(C)C)nc(N)n2)C1 [Example 160, N^4-[(1R)-1,2-Dimethylpropyl]-6-[3-(methylamino)azetidin-1-yl]pyrimidine-2,4-diamine], which Ki is on record?
**A.** 2.65 nM

**Q.** CN[C@@H]1CCN(c2cc(NCc3ccccc3)nc(N)n2)C1 [Example 254, N^4-Benzyl-6-[(3R)-3-(methylamino)pyrrolidin-1-yl]pyrimidine-2,4-diamine] was tested. Which Ki did it give?
**A.** 380 nM

**Q.** How did the Ki turn out when CN[C@H]1CCN(c2cc(NC(C)(C)C)nc(N)n2)C1 [Example 207, N^4-(tert-Butyl)-6-[(3S)-3-(methylamino)pyrrolidin-1-yl]pyrimidine-2,4-diamine] was run?
**A.** 43.3 nM

**Q.** With CN[C@@H]1CCN(c2cc(NCc3ccc(F)cc3)nc(N)n2)C1 [Example 155, N^4-(4-Fluorobenzyl)-6-[(3R)-3-(methylamino)pyrrolidin-1-yl]pyrimidine-2,4-diamine] as the compound, how does the Ki read?
**A.** 1.78 nM

**Q.** How did the Ki turn out when CNC1CN(c2cc(N3CCOC[C@@H]3C)nc(N)n2)C1 [Example 242, 4-[3-(Methylamino)azetidin-1-yl]-6-[(3S)-3-methylmorpholiN^4-yl]pyrimidin-2-amine] was run?
**A.** 258 nM

**Q.** With CNc1cc(N2CC[C@@H](NC)C2)nc(N)n1 [Example 221, N^4-Methyl-6-[(3R)-3-(methylamino)pyrrolidin-1-yl]pyrimidine-2,4-diamine] as the compound, how does the Ki read?
**A.** 90.3 nM

**Q.** Which Ki does the source give for CC1(N)CCN(c2cc(NCC3CC3)nc(N)n2)C1 (stereo not drawn) [Example 246, 6-(3-Amino-3-methylpyrrolidin-1-yl)-N^4-(cyclopropylmethyl)pyrimidine-2,4-diamine] here?
**A.** 301 nM

**Q.** Which Ki does the source give for C[C@H]1CN(c2cc(NCC3CC3)nc(N)n2)CCN1 [Example 184, N^4-(Cyclopropylmethyl)-6-[(3S)-3-methylpiperazin-1-yl]pyrimidine-2,4-diamine] here?
**A.** 20.4 nM

**Q.** Which Ki does the source give for CNC1CN(c2cc(N3CCCCC3)nc(N)n2)C1 [Example 295, 4-[3-(Methylamino)azetidin-1-yl]-6-piperidin-1-ylpyrimidin-2-amine] here?
**A.** 3180 nM

**Q.** For CC[C@H](C)Nc1cc(N2CC[C@@H](NC)C2)nc(N)n1 [Example 151, 6-[(3R)-3-(Methylamino)pyrrolidin-1-yl]-N^4-[(1S)-1-methylpropyl]pyrimidine-2,4-diamine], which Ki is on record?
**A.** 12.4 nM

**Q.** How did the Ki turn out when CC(C)(C)CCNc1cc(N2CCCNCC2)ncn1 [Example 280, 6-(1,4-Diazepan-1-yl)-N-(3,3-dimethylbutyl)pyrimidin-4-amine] was run?
**A.** 1430 nM

**Q.** For CN[C@@H]1CCN(c2cc(NCc3c(F)cccc3F)nc(N)n2)C1 [Example 271, N^4-(2,6-Difluorobenzyl)-6-[(3R)-3-(methylamino)pyrrolidin-1-yl]pyrimidine-2,4-diamine], which Ki is on record?
**A.** 870 nM

**Q.** CN1CCN(c2cc(N3CCOCC3)ncn2)CC1 [Example 293, 4-[6-(4-Methylpiperazin-1-yl)pyrimidin-4-yl]morpholine] was tested. Which Ki did it give?
**A.** 3040 nM

**Q.** C[C@@H]1CN(c2cc(NCc3ccc(F)cc3)nc(N)n2)CCN1 [Example 247, N^4-(4-Fluorobenzyl)-6-[(3R)-3-methylpiperazin-1-yl]pyrimidine-2,4-diamine] was tested. Which Ki did it give?
**A.** 312 nM

**Q.** For Nc1nc(NCC2CC2)cc(N2CC(N3CCCC3)C2)n1 [Example 136, N^4-(Cyclopropylmethyl)-6-(3-pyrrolidin-1-ylazetidin-1-yl)pyrimidine-2,4-diamine], which Ki is on record?
**A.** 7.21 nM

**Q.** Which Ki does the source give for CC(C)(C)CNc1cc(N2CC(N3CCOCC3)C2)nc(N)n1 [Example 287, N^4-(2,2-Dimethylpropyl)-6-(3-morpholin-4-ylazetidin-1-yl)pyrimidine-2,4-diamine] here?
**A.** 2000 nM

**Q.** Which Ki does the source give for CNC1CN(c2cc(NC3CCC3)ncn2)C1 [Example 179, N-Cyclobutyl-6-[3-(methylamino)azetidin-1-yl]pyrimidin-4-amine] here?
**A.** 16.5 nM

**Q.** CC(C)(C)CNc1cc(N2CC[C@@H]3NCC[C@@H]3C2)nc(N)n1 (racemic) [Example 162, N^4-(2,2-Dimethylpropyl)-6-[(3aR*,7aS*)-octahydro-5H-pyrrolo[3,2-c]pyridin-5-yl]pyrimidine-2,4-diamine] was tested. Which Ki did it give?
**A.** 2.91 nM

**Q.** Which Ki does the source give for CN(C)[C@H]1CCN(c2cc(NCCC(C)(C)C)ncn2)C1 [Example 2, 6-[(3S)-3-(Dimethylamino)pyrrolidin-1-yl]-N-(3,3-dimethylbutyl)pyrimidin-4-amine] here?
**A.** 485 nM

**Q.** How did the Ki turn out when CC(C)Nc1cc(N2C[C@@H]3CCCN[C@@H]3C2)nc(N)n1 [Example 169, N^4-Isopropyl-6-[(4aS,7aS)-octahydro-6H-pyrrolo[3,4-b]pyridin-6-yl]pyrimidine-2,4-diamine] was run?
**A.** 6.77 nM

**Q.** For CN[C@@H]1CCN(c2cc(NCc3cccc(F)c3F)nc(N)n2)C1 [Example 272, N^4-(2,3-Difluorobenzyl)-6-[(3R)-3-(methylamino)pyrrolidin-1-yl]pyrimidine-2,4-diamine], which Ki is on record?
**A.** 901 nM

**Q.** Which Ki does the source give for Nc1nc(NCC2CCCC2)cc(N2CC[C@@H](N)C2)n1 [Example 218, 6-[(3R)-3-Aminopyrrolidin-1-yl]-N^4-(cyclopentylmethyl)pyrimidine-2,4-diamine] here?
**A.** 80.7 nM

**Q.** For CN[C@@H]1CCN(c2cc(NC3CC3C)nc(N)n2)C1 (stereo partly drawn) [Example 134, 6-[(3R)-3-(Methylamino)pyrrolidin-1-yl]-N^4-(2-methylcyclopropyl)pyrimidine-2,4-diamine], which Ki is on record?
**A.** 4.15 nM

**Q.** For CN[C@@H]1CCN(c2cc(NCCC(F)(F)F)nc(N)n2)C1 [Example 235, 6-[(3R)-3-(Methylamino)pyrrolidin-1-yl]-N^4-(3,3,3-trifluoropropyl)pyrimidine-2,4-diamine], which Ki is on record?
**A.** 198 nM

**Q.** For CCNc1cc(N2CCN(C)CC2)ncn1 [Example 103, N-Ethyl-6-(4-methylpiperazin-1-yl)pyrimidin-4-amine], which Ki is on record?
**A.** 87.9 nM

**Q.** For Nc1nc(NCC2CC2)cc(N2CCC(N)CC2)n1 [Example 283, 6-(4-Aminopiperidin-1-yl)-N^4-(cyclopropylmethyl)pyrimidine-2,4-diamine], which Ki is on record?
**A.** 1700 nM

**Q.** For CNC1CN(c2cc(N3CCOC[C@H]3C)nc(N)n2)C1 [Example 263, 4-[3-(Methylamino)azetidin-1-yl]-6-[(3R)-3-methylmorpholiN^4-yl]pyrimidin-2-amine], which Ki is on record?
**A.** 626 nM

**Q.** How did the Ki turn out when C[C@H]1CN(c2cc(NCc3cccc(F)c3)nc(N)n2)CCN1 [Example 228, N^4-(3-Fluorobenzyl)-6-[(3S)-3-methylpiperazin-1-yl]pyrimidine-2,4-diamine] was run?
**A.** 117 nM

Same assay, conditions: at 1 μM

**Q.** Which “Method 1, % at 1 μM” value does the source give for CC(C)Nc1cc(N2C[C@H]3CN(C)C[C@H]3C2)nc(N)n1 [Example 241, N^4-Isopropyl-6-[(3aR*,6aS*)-5-methylhexahydropyrrolo[3,4-c]pyrrol-2(1H)-yl]pyrimidine-2,4-diamine] here?
**A.** 45% at 1 μM

Same assay, conditions: at 3.16 μM

**Q.** CNC1CN(c2cc(NCC3CC3)nc(NCC3CC3)n2)C1 [Example 276, N,N′-Bis(cyclopropylmethyl)-6-[3-(methylamino)azetidin-1-yl]pyrimidine-2,4-diamine] was tested. Which “Method 1, % at 3.16 μM” value did it give?
**A.** 14% at 3.16 μM

Same assay, conditions: top dose 10 μM

**Q.** For c1nc(NCC2CC2)cc(N2CCN(C3CCCCC3)CC2)n1 [Example 305, 6-(4-Cyclohexylpiperazin-1-yl)-N-(cyclopropylmethyl)pyrimidin-4-amine], which “Method 1, activity at top dose (10 μM)” value is on record?
**A.** No activity at top
